Where “and” joins values, the source holds several entries; their conditions need not be identical. Equal entries are not always repeated.
Test system: 653999-131-R-J2-PDC complex spheroids, growth % test/control
Test: Anticancer human tumor 653999-131-R-J2-PDC patient-derived lung adenocarcinoma cell line growth inhibition [AhR]
Details: for viability, T/C: stronger effect = lower value
Text: Multicellular complex tumor spheroid response to aryl hydrocarbon receptor antagonists in combination with a variety of drugs and investigational agents in selected tumor cell lines
The current study was undertaken to assess response to aryl hydrocarbon receptor antagonists in combination with standard-of-care drugs and investigational agents in solid tumor complex spheroid models. Complex spheroids include a stromal component modeled by human endothelial cells (HUVEC) and fibroblasts modeled by human mesenchymal stem cells (MSCs). The concentration ranges selected for each drug and investigational agent were based upon clinically achievable concentrations if the clinical Cmax of the agent was known.
Compounds. The drugs and investigational agents: BAY 2416964 (NSC825713), GNF351 (NSC835774), CH-223191 (NSC835775), CPI-455 (NSC825282), aza-TdCyd (NSC777586), decitabine (NSC127716), belinostat (NSC758774), entinostat (NSC756642), pevonedistat (NSC761192), tazemetostat (NSC777109), talazoparib (NSC765396), olaparib (NSC753686), selinexor (NSC780203), nedisertib (M3814, NSC802822), bortezomib (NSC756655), venetoclax (NSC766270), doxorubicin (NSC123127), elimusertib (BAY189344, NSC800525), ceralasertib (AZD6738, NSC777638), TAK-243 (NSC785004), alisertib (NSC759677), etoposide (NSC141540), topotecan (NSC609699), eribulin (NSC707389), gemcitabine (NSC613327), carboplatin (NSC241240), cisplatin (NSC119875), and SN-38 (NSC673596) were obtained from the National Cancer Institute (NCI) Developmental Therapeutics Program Chemical Repository (32). The FDA-approved anticancer drug set is available from the Developmental Therapeutics Program at https://dtp.cancer.gov/organization/dscb/obtaining/available plates.htm. […] The stock solutions were prepared in dimethyl sulfoxide (DMSO, Sigma-Aldrich, St. Louis, MO, cat. D2650), except for the platinum compounds which were prepared in saline (Quality Biological, Gaithersburg, MD, cat. 114-055-101), at 800-fold the tested concentration and stored at -70 degrees C prior to their use. All drugs and investigational agents were tested over a range starting from a high concentration at or near the clinical Cmax and decreasing in half-log increments. If the clinical Cmax for an agent had not been determined, the highest concentration tested was 10 microM (Table 1).
Cell Culture. All cells were maintained in an incubator at 37 degrees C and 5% CO2 with 95% humidity. The PDC lines were cultured according to standard operating procedures established by the NCI PDMR (https://pdmr.cancer.gov). Briefly, all PDCs were thawed and cultured in Matrigel-coated flasks prepared with a working solution of 1X Ham's F-12 nutrient mix, without supplementation (Invitrogen, Waltham, MA, cat. 11765054), 100 U/mL penicillin-streptomycin (Invitrogen, cat. 15140122), and 2.5% Matrigel (Corning Inc., Corning, NY, cat. 354248) for the first three passages. All PDCs were cultured in complete DMEM/F-12 media containing advanced DMEM/F-12 (Invitrogen, cat. 12634028), 4.9% defined fetal bovine serum, heat inactivated (HyClone Laboratories Inc., Logan, UT, cat. SH30070.03HI), 389 ng/mL hydrocortisone (Sigma-Aldrich, cat. H4001), 9.7 ng/mL human EGF recombinant protein (Invitrogen, cat. PHG0313), 23.4 microg/mL adenine (Sigma-Aldrich, cat. A2786), 97.3 U/mL penicillin-streptomycin (Invitrogen, cat. 15140122), 1.9 mM L-glutamine (Invitrogen, cat. 25030081), and 9.7 microM Y-27632 dihydrochloride (Tocris Bioscience, Bristol, United Kingdom, cat. 1254). The PDCs were cultured in complete DMEM/F12 media without 10 microM Y-27632 dihydrochloride for at least two passages prior to the screen. The established cell lines NCI-H1341 and […] were cultured in DMEM/F-12, HEPES (Invitrogen, cat. 11330032), 5% defined fetal bovine serum (HyClone Laboratories Inc., cat. SH30070.03), ITS premix universal culture supplement [insulin (5 microg/mL), transferrin (5 microg/mL), and selenious acid (5 ng/mL)] […]

[1] = curve of first compound, second compound 0.1 µM
[2] = curve of first compound, second compound 0.316 µM
[3] = curve of first compound, second compound 1 µM
[4] = curve of first compound, second compound 3.16 µM
[5] = curve of first compound, second compound 10 µM
[6] = second compound 0.1 µM, first compound 0.0316 µM
[7] = second compound 0.1 µM, first compound 0.1 µM
[8] = second compound 0.1 µM, first compound 0.316 µM
[9] = second compound 0.1 µM, first compound 1 µM
[10] = second compound 0.316 µM, first compound 0.0316 µM
[11] = second compound 0.316 µM, first compound 0.1 µM
[12] = second compound 0.316 µM, first compound 0.316 µM
[13] = second compound 0.316 µM, first compound 1 µM
[14] = second compound 1 µM, first compound 0.0316 µM
[15] = second compound 1 µM, first compound 0.1 µM
[16] = second compound 1 µM, first compound 0.316 µM
[17] = second compound 1 µM, first compound 1 µM
[18] = second compound 3.16 µM, first compound 0.0316 µM
[19] = second compound 3.16 µM, first compound 0.1 µM
[20] = second compound 3.16 µM, first compound 0.316 µM
[21] = second compound 3.16 µM, first compound 1 µM
[22] = second compound 10 µM, first compound 0.0316 µM
[23] = second compound 10 µM, first compound 0.1 µM
[24] = second compound 10 µM, first compound 0.316 µM
[25] = second compound 10 µM, first compound 1 µM
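Further: spheroids exposed to agents for seven days.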

CCc1c2c(nc3ccc(O)cc13)-c1cc3c(c(=O)n1C2)COC(=O)[C@]3(O)CC + CC(CO)NC(=O)c1cc(-c2ccc(Cl)cc2)nn(-c2cnn(C)c2)c1=O
IC50 [1]: 7.43 nM
IC50 [2]: 5.82 nM
IC50 [3]: 6.93 nM
IC50 [4]: 5.13 nM
IC50 [5]: 4.97 nM
viability, T/C (second compound 0.1 µM, first compound 0.000949 µM): 68%
viability, T/C (second compound 0.1 µM, first compound 0.003 µM): 59%
viability, T/C (second compound 0.1 µM, first compound 0.00949 µM): 48.4%
viability, T/C (second compound 0.1 µM, first compound 0.03 µM): 32%
viability, T/C (second compound 0.1 µM, first compound 0.0949 µM): 21.5%
viability, T/C (second compound 0.1 µM, first compound 0.3 µM): 12.7%
viability, T/C (second compound 0.316 µM, first compound 0.000949 µM): 64.1%
viability, T/C (second compound 0.316 µM, first compound 0.003 µM): 58.8%
viability, T/C (second compound 0.316 µM, first compound 0.00949 µM): 42.3%
viability, T/C (second compound 0.316 µM, first compound 0.03 µM): 34%
viability, T/C (second compound 0.316 µM, first compound 0.0949 µM): 19.4%
viability, T/C (second compound 0.316 µM, first compound 0.3 µM): 11.4%
viability, T/C (second compound 1 µM, first compound 0.000949 µM): 67%
viability, T/C (second compound 1 µM, first compound 0.003 µM): 60%
viability, T/C (second compound 1 µM, first compound 0.00949 µM): 45.4%
viability, T/C (second compound 1 µM, first compound 0.03 µM): 33.7%
viability, T/C (second compound 1 µM, first compound 0.0949 µM): 21.2%
viability, T/C (second compound 1 µM, first compound 0.3 µM): 13.8%
viability, T/C (second compound 3.16 µM, first compound 0.000949 µM): 50.2%
viability, T/C (second compound 3.16 µM, first compound 0.003 µM): 50.8%
viability, T/C (second compound 3.16 µM, first compound 0.00949 µM): 49.9%
viability, T/C (second compound 3.16 µM, first compound 0.03 µM): 29.1%
viability, T/C (second compound 3.16 µM, first compound 0.0949 µM): 22.1%
viability, T/C (second compound 3.16 µM, first compound 0.3 µM): 15.8%
viability, T/C (second compound 10 µM, first compound 0.000949 µM): 63.2%
viability, T/C (second compound 10 µM, first compound 0.003 µM): 55.8%
viability, T/C (second compound 10 µM, first compound 0.00949 µM): 42.9%
viability, T/C (second compound 10 µM, first compound 0.03 µM): 30%
viability, T/C (second compound 10 µM, first compound 0.0949 µM): 21.8%
viability, T/C (second compound 10 µM, first compound 0.3 µM): 16.1%

Nc1ncn(C2CC(O)C(CO)O2)c(=O)n1 (configuration not stated) + Cc1ccccc1N=Nc1ccc(NC(=O)c2ccnn2C)c(C)c1
IC50 [1]: > 1000 nM
IC50 [2]: > 1000 nM
IC50 [3]: > 1000 nM
IC50 [4]: > 1000 nM
IC50 [5]: > 1000 nM
viability, T/C (second compound 0.1 µM, first compound 0.00316 µM): 97.5%
viability, T/C (second compound 0.1 µM, first compound 0.01 µM): 99.3%
viability, T/C [6]: 95.5%
viability, T/C [7]: 87.5%
viability, T/C [8]: 79.9%
viability, T/C [9]: 76.9%
viability, T/C (second compound 0.316 µM, first compound 0.00316 µM): 100%
viability, T/C (second compound 0.316 µM, first compound 0.01 µM): 93.8%
viability, T/C [10]: 80.8%
viability, T/C [11]: 83.2%
viability, T/C [12]: 81.1%
viability, T/C [13]: 71.7%
viability, T/C (second compound 1 µM, first compound 0.00316 µM): 87.5%
viability, T/C (second compound 1 µM, first compound 0.01 µM): 94.6%
viability, T/C [14]: 88%
viability, T/C [15]: 93.3%
viability, T/C [16]: 78.9%
viability, T/C [17]: 78.1%
viability, T/C (second compound 3.16 µM, first compound 0.00316 µM): 88.6%
viability, T/C (second compound 3.16 µM, first compound 0.01 µM): 92.9%
viability, T/C [18]: 88%
viability, T/C [19]: 77.8%
viability, T/C [20]: 84.7%
viability, T/C [21]: 72.7%
viability, T/C (second compound 10 µM, first compound 0.00316 µM): 84.3%
viability, T/C (second compound 10 µM, first compound 0.01 µM): 78.7%
viability, T/C [22]: 82.7%
viability, T/C [23]: 78.6%
viability, T/C [24]: 77.5%
viability, T/C [25]: 70.8%

Cn1ncnc1C1c2n[nH]c(=O)c3cc(F)cc(c23)NC1c1ccc(F)cc1 (configuration not stated)
viability, T/C (compound 0.000316 µM): 94.2% and 105% and 97.9%
viability, T/C (compound 0.001 µM): 106% and 102% and 107%
viability, T/C (compound 0.00316 µM): 102% and 103% and 116%
viability, T/C (compound 0.01 µM): 91.6% and 96% and 101%
viability, T/C (compound 0.0316 µM): 94.2% and 95.2% and 105%
viability, T/C (compound 0.1 µM): 95.5% and 91.8% and 103%
IC50 (curve of compound): > 100 nM

O=C(C=Cc1cccc(S(=O)(=O)Nc2ccccc2)c1)NO + Cc1cncc(-c2nc(NCCc3c[nH]c4ccccc34)c3ncn(C(C)C)c3n2)c1
IC50 [1]: 2990 nM
IC50 [2]: 3320 nM
IC50 [3]: 3300 nM
IC50 [4]: 3480 nM
IC50 [5]: 1460 nM
viability, T/C [6]: 91.4%
viability, T/C [7]: 96.3%
viability, T/C [8]: 88%
viability, T/C [9]: 74.5%
viability, T/C (second compound 0.1 µM, first compound 3.16 µM): 49.2%
viability, T/C (second compound 0.1 µM, first compound 10 µM): 10.7%
viability, T/C [10]: 94.1%
viability, T/C [11]: 96.7%
viability, T/C [12]: 89%
viability, T/C [13]: 76.5%
viability, T/C (second compound 0.316 µM, first compound 3.16 µM): 52.2%
viability, T/C (second compound 0.316 µM, first compound 10 µM): 10.6%
viability, T/C [14]: 95.8%
viability, T/C [15]: 104%
viability, T/C [16]: 98.3%
viability, T/C [17]: 91.2%
viability, T/C (second compound 1 µM, first compound 3.16 µM): 51.6%
viability, T/C (second compound 1 µM, first compound 10 µM): 9.38%
viability, T/C [18]: 104%
viability, T/C [19]: 99.5%
viability, T/C [20]: 95.1%
viability, T/C [21]: 79.3%
viability, T/C (second compound 3.16 µM, first compound 3.16 µM): 53.7%
viability, T/C (second compound 3.16 µM, first compound 10 µM): 11.8%
viability, T/C [22]: 54.7%
viability, T/C [23]: 50.4%
viability, T/C [24]: 50.4%
viability, T/C [25]: 51.7%
viability, T/C (second compound 10 µM, first compound 3.16 µM): 46.9%
viability, T/C (second compound 10 µM, first compound 10 µM): 8.52%

— PubChem BioAssay AID1919000 (Molecular Pharmacology Branch, DTP, NCI, 2023)
